Results: paper PMC7807878, “Development of an engineered peptide antagonist against periostin to overcome doxorubicin resistance in breast cancer” (BMC Cancer, 2021)
Where no end group is shown, it is not given here. The star is where a group is joined. FITC = O=C1OC2(c3ccc(O)cc3Oc3cc(O)ccc32)c2ccc(NC(=S)*)cc21

How the values were obtained:
[1] = test system: MCF-7 cells; experiment: Drug sensitivity (MTS), MCF-7; format: cell-based; conditions: Homo sapiens, MCF7, 48 h, MTS
Procedure: (§1) Determination the IC50 of BCA cells in response to chemotherapeutic drugs was analyzed by MTS assay. The experiment started from 5 × 10^3 of BCA cells in 100 μl medium that were seeded in 96-well plates for 24 h, then media was changed with different concentrations of new chemotherapeutic drugs [doxorubicin (S1208), paclitaxel (S1150), cisplatin (S1166), 5-fluorouracil (5-FU) (S1209) and gemcitabine (S1714) that were purchased from Selleck Chemicals, Houston, TX, USA] with or without rPN and anti-PN peptide for a further 48 h. After that, cell viability was determined by the MTS assay. Combination index (CI) was calculated by IC50 of combination of drug and PN or anti-PN peptide divided by IC50 of chemotherapeutic drug alone.
(§2) ANOVA test or Student’s t-test were applied for statistical analysis of the experiments. GraphPad Prism® version 7.04 software (GraphPad Software, San Diego, CA, USA) was used in calculation of IC50 values of chemotherapeutic drugs and PASW Statistics software version 18 (SPSS, IBM, Armonk, NY, USA) was used for other analysis. Dose-responses were compared by Holm-Sidak’s multiple comparison test. Mann-Whitney ranked-sum test was used for comparisons between normal and patient serum PN. Chi-square or Fisher’s exact test were used to determine the correlation between PN expression and clinical data in BCA patients. Kaplan-Meier Log-rank test using Kaplan-Meier Plotter online tool (https://kmplot.com/) was performed to determine the correlation between PN expression and survival time of BCA patients by online database. P-values of < 0.05 were used as statistical significance.

[2] = test system: MDA-MB-231 cells; experiment: Drug sensitivity (MTS), MDA-MB-231; format: cell-based; conditions: Homo sapiens, MDA-MB-231, 48 h, MTS
Procedure: as §1, §2

[3] = test system: PN-transfected BCA cells; experiment: Immunocytochemistry, FITC-peptide binding to permeabilized PN-transfected BCA cells; format: cell-based; conditions: 2 μM FITC-peptide, 1 h at RT, 1% Triton X permeabilized, confocal microscope; PN-transfected vs mock
Excerpt: (§3) After selecting the best binding sequence of 12-amino acids peptides, 2 types of peptide would be synthesized, plain peptide and peptide conjugated with fluorescein isothiocyanate (FITC). For the synthesis of the latter, a spacer region ([…]) would be added at the C-terminal end of the peptide and FITC was conjugated with the side chain of lysine. Finally, C-terminal amidation would be performed. The synthesis of plain and FITC-labelled anti PN peptides was ordered from Syn Peptide company (Shanghai, China). FITC-labelled anti-PN peptide tested binding affinity to non-denaturing cell lysate of transfected BCA cells and their mock transfected cells and rPN by dot blot analysis. Briefly, 12.5 μg of cell lysate or 500 ng of rPN in 1 μl was applied onto nitrocellulose membrane. The membrane was blocked with 5% BSA followed by peptide incubation at 4 °C overnight and the fluorescent signal was detected the next day using the G:BOX gel documentation system. The checking of anti-PN peptide binding to intact PN-transfected BCA cells was also performed with similar process as immunocytochemistry plus a step of cell membrane permeabilizing after fixation by incubated with 1% Triton X for 1 min at RT. […] The observation was viewed under confocal microscope using laser diode 488 nm.

[4] = test system: rPN; experiment: Dot blot, FITC-peptide binding to rPN; conditions: 500 ng rPN, 4 °C overnight, fluorescence
Excerpt: as §3

[5] = molecular target: T1, BSA (Bos taurus, UniProt P02769); experiment: Dot blot, FITC-peptide binding to BSA; conditions: BSA negative control, fluorescence
Excerpt: as §3

[6] = test system: non-denaturing cell lysate of PN-transfected BCA cells (MDA-MB-231 and MCF-7); experiment: Dot blot, FITC-peptide binding to non-denaturing cell lysate of PN-transfected BCA cells; conditions: 12.5 μg cell lysate, 4 °C overnight, fluorescence, vs mock
Excerpt: as §3

[7] = molecular target: T1, BSA; experiment: Isothermal titration calorimetry, binding to BSA (negative control); conditions: ITC
Excerpt: The physical properties of this peptide would be determined by an online tool (https://www.thermofisher.com) (Thermo Fisher Scientific). Structure of this peptide and the binding properties to PN would be predicted by PEP-FOLD3 [34] and pepATTRACT [35] tools from RPBS Web Portal (https://bioserv.rpbs.univ-paris-diderot.fr) using PN 3D-structure from RCSB PDB database (https://www.rcsb.org/structure/5YJG). […] The procedure followed the instructions for the machine. The results would be determined by the measurement of the exothermic energy after intermittent injection into the cell compartment and reported as the binding affinity constant (KD).

T1 sequence (P02769 25-607): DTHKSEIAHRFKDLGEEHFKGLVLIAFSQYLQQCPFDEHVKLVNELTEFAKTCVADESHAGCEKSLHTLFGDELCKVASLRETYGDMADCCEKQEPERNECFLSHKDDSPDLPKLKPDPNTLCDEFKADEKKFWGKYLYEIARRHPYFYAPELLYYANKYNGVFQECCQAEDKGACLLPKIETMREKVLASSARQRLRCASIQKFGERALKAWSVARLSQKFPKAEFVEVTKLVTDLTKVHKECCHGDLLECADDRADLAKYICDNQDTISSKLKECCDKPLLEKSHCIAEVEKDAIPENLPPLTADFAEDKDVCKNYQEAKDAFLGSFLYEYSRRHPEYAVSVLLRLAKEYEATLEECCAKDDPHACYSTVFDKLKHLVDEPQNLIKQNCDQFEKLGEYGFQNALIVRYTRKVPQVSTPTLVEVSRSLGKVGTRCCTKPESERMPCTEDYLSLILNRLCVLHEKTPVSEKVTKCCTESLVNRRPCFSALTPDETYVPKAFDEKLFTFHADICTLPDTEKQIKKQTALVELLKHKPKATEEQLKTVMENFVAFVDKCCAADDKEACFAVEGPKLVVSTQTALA

COc1cccc2c1C(=O)c1c(O)c3c(c(O)c1C2=O)C[C@@](O)(C(=O)CO)C[C@@H]3O[C@H]1C[C@H](N)[C@H](O)[C@H](C)O1 [doxorubicin]
IC50 ([1]; doxorubicin with anti-PN peptide, PN-transfected MCF-7, 48 h, P-value = 0.007): 970 nM
IC50 ([1]; doxorubicin, PN-transfected MCF-7, 48 h, P-value = 0.013 vs mock): 1440 nM
IC50 ([1]; doxorubicin, anti-PN peptide treated MCF-7 without rPN, 48 h, P-value = 0.558): 1040 nM
IC50 ([1]; doxorubicin, mock transfected MCF-7, 48 h): 1070 nM
IC50 ([1]; doxorubicin, rPN + anti-PN peptide treated MCF-7, 48 h, P-value = 0.038): 1270 nM
IC50 ([1]; doxorubicin, rPN-treated MCF-7, 48 h, P-value = 0.007): 1460 nM
IC50 ([1]; doxorubicin, untreated control MCF-7 (rPN treatment experiment), 48 h): 1050 nM
IC50 ([2]; doxorubicin with anti-PN peptide, PN-transfected MDA-MB-231, 48 h, P-value = 0.002): 797 nM
IC50 ([2]; doxorubicin with anti-PN peptide, mock transfected MDA-MB-231, 48 h, P-value = 0.932): 706 nM
IC50 ([2]; doxorubicin, PN-transfected MDA-MB-231, 48 h, P-value < 0.001 vs mock): 1090 nM
IC50 ([2]; doxorubicin, anti-PN peptide treated MDA-MB-231 without rPN, 48 h, P-value = 0.870): 896 nM
IC50 ([2]; doxorubicin, mock transfected MDA-MB-231, 48 h): 710 nM
IC50 ([2]; doxorubicin, rPN + anti-PN peptide treated MDA-MB-231, 48 h, P-value = 0.038): 1300 nM
IC50 ([2]; doxorubicin, rPN-treated MDA-MB-231, 48 h, P-value = 0.024): 1990 nM
IC50 ([2]; doxorubicin, untreated control MDA-MB-231 (rPN treatment experiment), 48 h): 845 nM

FITC-labelled anti-PN peptide (TFATHGKHWAAPGGGSCK(FITC)-NH2; N-terminus assumed; SMILES C[C@H](NC(=O)[C@H](Cc1c[nH]c2ccccc12)NC(=O)[C@H](Cc1c[nH]cn1)NC(=O)[C@H](CCCCN)NC(=O)CNC(=O)[C@H](Cc1c[nH]cn1)NC(=O)[C@@H](NC(=O)[C@H](C)NC(=O)[C@H](Cc1ccccc1)NC(=O)[C@@H](N)[C@@H](C)O)[C@@H](C)O)C(=O)N[C@@H](C)C(=O)N1CCC[C@H]1C(=O)NCC(=O)NCC(=O)NCC(=O)N[C@@H](CO)C(=O)N[C@@H](CS)C(=O)N[C@@H](CCCCNC(=S)Nc1ccc2c(c1)C(=O)OC21c2ccc(O)cc2Oc2cc(O)ccc21)C(N)=O)
Peptide binding in permeabilized cells [3]: confirmed by immunocytochemistry staining in permeabilized cells
Peptide binding to rPN [4]: markedly increased in rPN
Peptide binding to BSA [5]: no signal in BSA
Peptide binding to PN-transfected cell lysate [6]: higher in both PN-transfected BCA cells compared with their mock control cells

TFATHGKHWAAP [anti-PN peptide]
Binding affinity to BSA [7]: could not be determined in BSA
